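Cells were grown in 96-well plates and exposed to each compound for 48 hours at five concentrations; endpoints were interpolated linearly between bracketing concentrations, or set to the highest concentration if not reached. GI50 marks 50% less growth.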 Activity calls are given as the source filed them. Rule as the data show it: active = GI50 up to about 1.1 µM and inactive = higher.
Tests used:
Assay in all cases: growth of human tumour cells (NCI), 48 h
786-0 = test system: 786-0
A498 = test system: A498
A549 = test system: A549
ACHN = test system: ACHN
CAKI-1 = test system: CAKI-1
CCRF-CEM = test system: CCRF-CEM
COLO 205 = test system: COLO 205
DLD-1 = test system: DLD-1
DMS-273 = test system: DMS-273
EKVX = test system: EKVX
HCC 2998 = test system: HCC 2998
HCT-116 = test system: HCT-116
HCT-15 = test system: HCT-15
HL-60 = test system: HL-60
HOP-18 = test system: HOP-18
HOP-62 = test system: HOP-62
HOP-92 = test system: HOP-92
HT-29 = test system: HT-29
IGROV-1 = test system: IGROV-1
K562 = test system: K562
KM-20L2 = test system: KM-20L2
KM12 = test system: KM12
LOX IMVI = test system: LOX IMVI
LXFL 529 = test system: LXFL 529
M14 = test system: M14
M19-MEL = test system: M19-MEL
MOLT-4 = test system: MOLT-4
Malme-3M = test system: Malme-3M
NCI-H226 = test system: NCI-H226
NCI-H23 = test system: NCI-H23
NCI-H460 = test system: NCI-H460
NCI-H522 = test system: NCI-H522
OVCAR-3 = test system: OVCAR-3
OVCAR-4 = test system: OVCAR-4
OVCAR-5 = test system: OVCAR-5
OVCAR-8 = test system: OVCAR-8
RXF 393 = test system: RXF 393
SF-268 = test system: SF-268
SF-295 = test system: SF-295
SF-539 = test system: SF-539
SK-MEL-28 = test system: SK-MEL-28
SK-MEL-2 = test system: SK-MEL-2
SK-MEL-5 = test system: SK-MEL-5
SK-OV-3 = test system: SK-OV-3
SN12C = test system: SN12C
SNB-19 = test system: SNB-19
SNB-75 = test system: SNB-75
SNB-78 = test system: SNB-78
SR = test system: SR
SW-620 = test system: SW-620
TK-10 = test system: TK-10
U-251 = test system: U-251
UACC-257 = test system: UACC-257
UACC-62 = test system: UACC-62
UO-31 = test system: UO-31
XF498 = test system: XF498
DMS-114 = test system: DMS-114
RPMI-8226 = test system: RPMI-8226

Measured: GI50

COc1c2c(cc3nc4ccccc4nc13)CCC(C(C)(C)O)C2 (configuration not stated)
> 100 µM: HCT-15
inactive: 786-0 > 100 µM | A498 > 100 µM | A549 > 100 µM | ACHN > 100 µM | CAKI-1 > 100 µM | CCRF-CEM 45.1 µM | COLO 205 69 µM | DLD-1 > 100 µM | DMS-273 63.4 µM | EKVX > 100 µM | HCC 2998 > 100 µM | HCT-116 > 100 µM | HL-60 26.4 µM | HOP-18 86.5 µM | HOP-62 > 100 µM | HOP-92 76.2 µM | HT-29 66.4 µM | IGROV-1 > 100 µM | K562 73.8 µM | KM-20L2 > 100 µM | KM12 82.6 µM | LOX IMVI > 100 µM | LXFL 529 > 100 µM | M14 > 100 µM | M19-MEL > 100 µM | MOLT-4 32.4 µM | Malme-3M 65.6 µM | NCI-H226 > 100 µM | NCI-H23 56.8 µM | NCI-H460 > 100 µM | NCI-H522 31.8 µM | OVCAR-3 49.5 µM | OVCAR-4 > 100 µM | OVCAR-5 > 100 µM | OVCAR-8 > 100 µM | RXF 393 > 100 µM | SF-268 > 100 µM | SF-295 > 100 µM | SF-539 > 100 µM | SK-MEL-28 > 100 µM | SK-MEL-2 > 100 µM | SK-MEL-5 45.1 µM | SK-OV-3 > 100 µM | SN12C > 100 µM | SNB-19 > 100 µM | SNB-75 > 100 µM | SNB-78 > 100 µM | SR 73.6 µM | SW-620 > 100 µM | TK-10 > 100 µM | U-251 > 100 µM | UACC-257 > 100 µM | UACC-62 > 100 µM | UO-31 83.2 µM | XF498 > 100 µM

Cc1cc(C)c(C(=O)O)c(N)c1O
inactive: 786-0 > 100 µM | A498 > 100 µM | A549 > 100 µM | ACHN > 100 µM | CAKI-1 > 100 µM | CCRF-CEM > 100 µM | COLO 205 > 100 µM | DLD-1 > 100 µM | DMS-114 > 100 µM | DMS-273 > 100 µM | EKVX > 100 µM | HCC 2998 > 100 µM | HCT-116 > 100 µM | HL-60 > 100 µM | HOP-62 > 100 µM | HT-29 > 100 µM | IGROV-1 > 100 µM | K562 > 100 µM | KM-20L2 > 100 µM | KM12 > 100 µM | LOX IMVI > 100 µM | LXFL 529 > 100 µM | M14 > 100 µM | M19-MEL > 100 µM | MOLT-4 > 100 µM | Malme-3M > 100 µM | NCI-H226 > 100 µM | NCI-H23 > 100 µM | NCI-H522 > 100 µM | OVCAR-3 > 100 µM | OVCAR-4 > 100 µM | OVCAR-5 > 100 µM | OVCAR-8 > 100 µM | RPMI-8226 > 100 µM | RXF 393 > 100 µM | SF-268 > 100 µM | SF-295 > 100 µM | SK-MEL-28 > 100 µM | SK-MEL-2 > 100 µM | SK-MEL-5 > 100 µM | SK-OV-3 > 100 µM | SN12C > 100 µM | SNB-19 > 100 µM | SNB-75 > 100 µM | SR > 100 µM | SW-620 > 100 µM | TK-10 > 100 µM | U-251 > 100 µM | UACC-257 > 100 µM | UACC-62 > 100 µM | UO-31 > 100 µM
> 100 µM: HCT-15

CCC1NC(/N=N/c2ccc([N+](=O)[O-])cc2)(P(=O)(OC(C)C)OC(C)C)OC1=O (configuration not stated)
inactive: A498 > 100 µM | A549 > 100 µM | ACHN > 100 µM | CAKI-1 > 100 µM | CCRF-CEM > 100 µM | COLO 205 > 100 µM | DLD-1 > 100 µM | DMS-273 > 100 µM | EKVX > 100 µM | HCC 2998 > 100 µM | HCT-116 > 100 µM | HL-60 > 100 µM | HOP-62 > 100 µM | HOP-92 > 100 µM | HT-29 > 100 µM | IGROV-1 > 100 µM | K562 > 100 µM | KM-20L2 > 100 µM | KM12 > 100 µM | LXFL 529 > 100 µM | M14 > 100 µM | M19-MEL > 100 µM | MOLT-4 > 100 µM | Malme-3M > 100 µM | NCI-H23 > 100 µM | NCI-H522 > 100 µM | OVCAR-3 > 100 µM | OVCAR-4 > 100 µM | OVCAR-5 > 100 µM | OVCAR-8 > 100 µM | RPMI-8226 > 100 µM | SF-268 > 100 µM | SF-295 > 100 µM | SF-539 > 100 µM | SK-MEL-28 > 100 µM | SK-MEL-2 > 100 µM | SK-MEL-5 > 100 µM | SK-OV-3 > 100 µM | SN12C > 100 µM | SNB-19 > 100 µM | SNB-75 23.6 µM | SNB-78 > 100 µM | SR > 100 µM | SW-620 > 100 µM | TK-10 > 100 µM | U-251 > 100 µM | UACC-257 > 100 µM | UACC-62 97.1 µM | UO-31 > 100 µM | XF498 > 100 µM

CC(=O)Oc1cc(OC(C)=O)c2c(=O)c3ccccc3[nH]c2c1
49.3 µM: HCT-15
inactive: A549 61.9 µM | ACHN 24.6 µM | DLD-1 21.3 µM | DMS-114 24.8 µM | DMS-273 45.4 µM | HCT-116 56.8 µM | HOP-18 10.5 µM | HT-29 49.2 µM | IGROV-1 19.1 µM | KM12 37.8 µM | LOX IMVI 39.4 µM | LXFL 529 26.9 µM | M19-MEL 31.9 µM | MOLT-4 27.5 µM | Malme-3M 24.4 µM | NCI-H226 27.5 µM | NCI-H23 27.2 µM | NCI-H460 33.3 µM | NCI-H522 24.8 µM | OVCAR-3 16.2 µM | OVCAR-4 65.9 µM | OVCAR-8 32.9 µM | RXF 393 58.3 µM | SF-268 50.5 µM | SF-295 32.7 µM | SF-539 20.8 µM | SK-MEL-28 54.6 µM | SK-MEL-2 49.5 µM | SK-MEL-5 18.9 µM | SK-OV-3 13.9 µM | SN12C 36.5 µM | SNB-19 70.1 µM | SNB-75 35.2 µM | SNB-78 57 µM | TK-10 38.5 µM | UACC-257 28.1 µM | UACC-62 62.1 µM | UO-31 12.5 µM | XF498 11.2 µM

CCCCc1c2c(nc3c1CCc1cc4c(nc1-3)-c1nc3c(c(CCCC)c1CC4)CCC/C3=C\c1ccccc1)/C(=C/c1ccccc1)CCC2
inactive: 786-0 25.2 µM | A498 > 100 µM | A549 > 100 µM | CAKI-1 29.1 µM | CCRF-CEM 48.6 µM | COLO 205 > 100 µM | DLD-1 > 100 µM | DMS-114 47.5 µM | DMS-273 35.2 µM | EKVX > 100 µM | HCC 2998 88.3 µM | HCT-116 65.3 µM | HL-60 62.1 µM | HOP-62 36.9 µM | HOP-92 > 100 µM | HT-29 85.3 µM | IGROV-1 81.5 µM | K562 > 100 µM | KM-20L2 > 100 µM | KM12 98.9 µM | LOX IMVI > 100 µM | LXFL 529 30.8 µM | M14 > 100 µM | M19-MEL > 100 µM | MOLT-4 > 100 µM | Malme-3M > 100 µM | NCI-H226 > 100 µM | NCI-H23 73.5 µM | NCI-H460 28.2 µM | NCI-H522 44.1 µM | OVCAR-3 40.6 µM | OVCAR-5 > 100 µM | OVCAR-8 > 100 µM | RPMI-8226 > 100 µM | RXF 393 23.3 µM | SF-268 > 100 µM | SF-295 78.9 µM | SF-539 33.5 µM | SK-MEL-28 > 100 µM | SK-MEL-2 35.2 µM | SK-MEL-5 69.7 µM | SK-OV-3 36.2 µM | SN12C > 100 µM | SNB-19 35.9 µM | SNB-78 39.4 µM | SR > 100 µM | SW-620 67 µM | TK-10 51.2 µM | U-251 47.3 µM | UACC-257 > 100 µM | UACC-62 97.3 µM | UO-31 > 100 µM | XF498 32.5 µM
> 100 µM: HCT-15

Reference: ChEMBL document CHEMBL1201862, “PubChem BioAssay data set” (2004)
